Consider 2 compounds from PMC9223764, “In Vitro Selection and Characterization of HIV-1 Variants with Increased Resistance to LP-40, Enfuvirtide-Based Lipopeptide Inhibitor” (International Journal of Molecular Sciences, 2022).

Where “and” joins values, the source holds several entries; their conditions need not be identical. Identical values can stand only once. Like-named read-outs stand apart in the source and are kept apart here. Where a SMILES comes first, the peptide text is derived from it. The star is where a group is joined. Palmitoyl = CCCCCCCCCCCCCCCC(=O)*

The subject of experiment [1] is HIV-1 NL4-3 gp41 L33S pseudovirus. It is filed as cell-based. The note with it: for IC50: L33S, TZM-bl cells, 48 h, luciferase, mean ± SD, triplicate, repeated three times; for Fold change in IC50: L33S relative to WT NL4-3. As to the method:
(§1) Viral RNA was extracted from the supernatant, and, after reverse transcription, the cDNA was amplified using PCR. These amplified DNA were connected to the T-Easy vector and transformed to Trans 2-Blue Chemically Competent Cells. These sequences were determined via sequencing. The expression plasmids, which contained different HIV-1NL4-3 Env mutants, were constructed using DNA assembly (NEBuilder® HiFi DNA Assembly Master Mix). In brief, two primers were used to amplify Env, and the other two primers were used to amplify the vector fragment. The products of PCR were purified with a 20–25 bp overlap in the terminal of Env and the vector fragment Env and the vector fragment were added to the DNA assembly master mix at […] for 15 min and then transformed to Trans 2-Blue Chemically Competent Cells. Additionally, a single-point mutation was generated using double-stranded DNA templates and a selection of mutants with a restriction enzyme (DpnI) as described previously.
(§2) The infectivity of HIV Env mutants and the inhibitory activities of membrane fusion inhibitors on mutants in TZM-bl cells were measured using a single-cycle infection assay as described previously. Briefly, the HIV pseudovirus was packed using an Env-coding plasmid, and pSG3ΔEnv was co-transfected into HEK293T cells. pSG3ΔEnv encodes an Env-defective, luciferase-expressing HIV-1 genome. After the pseudoviruses were harvested and filtrated, the amount of pseudoviruses was fixed via P24 antigen, and their infectivity was determined in TZM-bl cells. In order to measure the inhibitory activities of the inhibitors, inhibitors diluted serially 3-fold were mixed with an equal volume of pseudoviruses, and then 100 µL 1 × 10^5/mL TZM-bl cells were added to the mixture and incubated at 37 °C with 5% CO2 for 48 h. After that, TZM-bl cells were lysed using reporter lysis buffer, and IC50 values were calculated according to luciferase activity measured by luciferase assay reagents and a luminescence counter (Promega, Madison, WI, USA).

Experiment [2] relates to HIV-1 NL4-3 gp41 I37T pseudovirus. The format is cell-based. Particulars: for IC50: I37T, TZM-bl cells, 48 h, luciferase, mean ± SD, triplicate, repeated three times; for Fold change in IC50: I37T relative to WT NL4-3. As to the method:
as §1, §2

The subject of experiment [3] is HIV-1 NL4-3 gp41 NDQEEDYN/L33S/I37T pseudovirus. It is filed as cell-based. Particulars: Table 3; for IC50: NDQEEDYN/L33S/I37T, TZM-bl cells, 48 h, luciferase, means, triplicate, repeated three times. Summed up:
(§3)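 Env-pseudotyped HIV-1 (pSG3ΔEnv backbone, luciferase reporter) made in HEK293T and normalised by p24. 3-fold serial inhibitor dilutions mixed with virus, then TZM-bl cells added, 48 h at 37 °C. Single-cycle infection; IC50 from luciferase activity in lysed cells.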

Experiment [4] relates to HIV-1 NL4-3 gp41 V38A/N42T pseudovirus. The format is cell-based. The note with it: Table 3; for IC50: V38A/N42T, TZM-bl cells, 48 h, luciferase, means, triplicate, repeated three times. Summed up:
as §3

Experiment [5] relates to HIV-1 NL4-3. The experiment in a line: In vitro selection of resistant virus, dose-escalating passages in C8166 cells. It is filed as cell-based. Particulars: 1.5- to 2-fold increase per passage, start 0.5 µM T20, 0.04 µM LP-40. As to the method: To determine the resistance profile of LP-40, LP-40-resistant variants were selected using a dose-escalating method. The selection for drug-resistant HIV-1NL4-3 commenced with a concentration of 0.04 µM LP-40 (Figure 2B). Finally, after 32 passages, the induced concentration of LP-40 reached 200 µM. […] As shown in passage 9 (P-9), the concentration of LP-40 was 0.3 µM, and it can be observed that isoleucine was replaced by threonine at position 37 in the gp41 NHR coding region (I37T). G86D and C87Y were observed; at position 119 (E 119 G) in the gp41 CHR coding region, glutamate was replaced by glycine; at position 126 (N 126 K), asparagine was replaced by lysine. In P-24, the concentration of LP-40 was 8 µM; I37T in the NHR coding region was still present, and A15V, A21T, and L57H were also present, and N126K at position 126 in the CHR coding region was still present. In P-26, the concentration of LP-40 was 20 µM; at L33S, position 33 in the NHR coding region, leucine was replaced by serine and I37T remained. Additionally, a combination of mutations—E109N, N113D, E119Q, D121E, N125E, S129D, H132Y, and S133N (abbreviated as […])—appeared in the coding region of CHR. At a concentration of 200 µM, in addition to L33S and I37T, D36G, V38A, V38T, N42T, and I69V appeared in the NHR coding region, and a combination of the above eight mutations still existed in the CHR coding region. […]

Experiment [6] relates to HIV-1 NL4-3 gp41 I69V pseudovirus. It is filed as cell-based. The note with it: for Fold change in IC50: I69V relative to WT NL4-3. As to the method: as §1, §2
The test system of experiment [7] is NL4-3D36G virus. Particulars: single infection inhibition experiment; cited from earlier work. As to the method: However, it requires frequent and high doses (90 mg, twice a day), and resistance is easily acquired. The TRM of the T20 carboxy-terminal, also known as the MPER (membrane proximal external region), is rich in […] sequences ([…]). Therefore, it is highly hydrophobic (Figure 1).

Experiment [8] relates to LP40-V2 pseudovirus (HIV-1 NL4-3 Env mutant). The format is cell-based. The method, then:
as §2

Experiment [9] has as its system HIV-1 NL4-3 pseudovirus (WT). The format is cell-based. The note with it: for IC50: WT NL4-3, TZM-bl cells, 48 h, luciferase, triplicate, repeated three times. The method, then: as §2

In general, IC50 refers to the concentration needed to halve the response being measured. On to Enfuvirtide, for which the IC50 in experiment [1] (Table 2) worked out at 3450 ± 564 nM; in [2] (Table 2), 711 ± 157 nM; in [3] it was 3790 nM; in experiment [4], 3350 nM.

Turning to `CCCCCCCCCCCCCCCC(=O)NCCCC[C@H](NC(=O)[C@H](CC(=O)O)NC(=O)[C@H](CC(C)C)NC(=O)[C@H](CCC(=O)O)NC(=O)[C@H](CC(C)C)NC(=O)[C@H](CC(C)C)NC(=O)[C@H](CCC(=O)O)NC(=O)[C@H](CCC(N)=O)NC(=O)[C@H](CCC(=O)O)NC(=O)[C@H](CC(N)=O)NC(=O)[C@H](CCCCN)NC(=O)[C@H](CCC(=O)O)NC(=O)[C@H](CCC(N)=O)NC(=O)[C@H](CCC(N)=O)NC(=O)[C@H](CC(N)=O)NC(=O)[C@H](CCC(N)=O)NC(=O)[C@H](CO)NC(=O)[C@H](CCC(=O)O)NC(=O)[C@H](CCC(=O)O)NC(=O)[C@@H](NC(=O)[C@H](CC(C)C)NC(=O)[C@H](CO)NC(=O)[C@H](Cc1c[nH]cn1)NC(=O)[C@@H](NC(=O)[C@H](CC(C)C)NC(=O)[C@H](CO)NC(=O)[C@@H](NC(=O)[C@H](Cc1ccc(O)cc1)NC(C)=O)[C@@H](C)O)[C@@H](C)CC)[C@@H](C)CC)C(N)=O` [LP-40] (Ac-YTSLIHSLIEESQNQQEKNEQELLELDK(Palmitoyl)-NH2), the “Induced inhibitor concentration reached after 32 passages” value in experiment [5] was 200 µM. In addition, the “Fold change in IC50” value in experiment [1] (Table 2) is 67 fold and 67.08 fold; in experiment [1] (Table 3) it was 77.43 fold; in [2] (Table 2) it was 16.33 fold; in [2] (Table 3) it was 18.85 fold; in experiment [6] (Table 2), 0.93 fold; in experiment [6] (Table 3), 1.08 fold. Moreover, the “Fold change in IC50” value in experiment [3] (NDQEEDYN/L33S/I37T relative to WT NL4-3) is recorded as 120.00 fold; in [4] (V38A/N42T relative to WT NL4-3) it was 149.15 fold; in [8] (LP40-V2 relative to WT NL4-3, Table 1), 12.59 fold; in experiment [9] (WT NL4-3 reference, Table 1) it was 1.00 fold. The IC50 in [1] (Table 2) was found to be 2120 ± 534 nM; in experiment [2] (Table 2), 515 ± 74.3 nM; in experiment [6] (I69V, Table 2, TZM-bl cells, 48 h, luciferase, mean ± SD, triplicate, repeated three times), 29.4 ± 4.59 nM; in [3] it was 3280 nM; in experiment [4], 4070 nM; in experiment [8] (LP40-V2 (Env selected at LP-40 0.3 µM), TZM-bl cells, 48 h, luciferase, mean ± SD, triplicate, repeated three times) it was 374 ± 29.8 nM. In addition, the IC50 in [9] (Table 1, mean ± SD) was 29.7 ± 4.52 nM; in experiment [9] (Table 2, mean ± SD), 31.5 ± 10.4 nM; in experiment [9] (Table 3, means), 27.3 nM. The “Improvement of antiviral IC50 compared to T20” value in [7] is listed as “approximately seven-fold”.
